The text below walks through data of patent US6413983B1, “Benzopyranyl heterocycle derivatives, process for preparation thereof, and pharmaceutical compositions containing them” (Dongbu Hannong Chemical Co. Ltd., priority 2000, dated 2002).

The subject of one assay is isolated rat hearts. Briefly: Cardioprotective activity in isolated ischemic heart models of rats (Langendorff, global ischemia/reperfusion). The settings on record: for EDP (MmHg) / LDVP × HR (%) / TTC: 10 μM; for EDP (MmHg): left ventricular end-diastolic pressure after 30 min reperfusion; for LDVP × HR (%): reperfusion double product as % of pretreatment DP, 30 min global ischemia, 30 min reperfusion; for TTC: time to contracture during global ischemia. Here is the method: Male Sprague-Dawley rats weighing 300-450 g were anesthetized with sodium pentobarbital (100 mg/kg, i.p.). The tail vein was injected with heparin (1,000 U/kg) and then the trachea was intubated. […] A latex balloon filled with solvent (ethanol: water=1:1 (v/v)) and attached to a metal cannula was placed in the left ventricle through pulmonary vein and connected to a Isotec pressure transducer (H.S.E., Germany) for measurement of left ventricular pressure (LVP). […] Then, baseline contractile function, heart rate (HR), and coronary flow (CF) (extracorporeal electromagnetic flow probe, Narco Bio-System, U.S.A.) were measured. Cardiac contractile function was calculated by subtracting LVEDP from LV peak systolic pressure (LVSP), yielding developed pressure (LVDP). Double product (DP), another important parameter for assessing cardiac performance, was calculated by multiplying HR by LVDP. Throughout the experiment, all these parameters were measured, and calculated before and 10 min after pretreatment with each compound and 30 min after the onset of reperfusion with buffer. Data on reperfusion DP were further expressed as the percentage to pretreatment DP.
We then rendered the hearts globally ischemic by completely shutting off the perfusate for 30 min. Severity of ischemia was determined as the time to contracture (TTC, min) during global ischemia in which the first 5 mmHg increase in EDP was observed. Then, the hearts were reperfused and, 30 min later, contractile function (LVDP, DP) and cumulative reperfusion lactate dehydrogenase (LDH) release were measured. LDH was measured as a sensitive index for loss of cell viability with a kit supplied by Boerhinger Mannheim based on the technique of Wroblewski and LaDue [F. Wroblewski and JS.

The test system of assay [1] is isolated rat aorta constricted with methoxamine. Briefly: Vasodilation effects on isolated aorta of rats (methoxamine-constricted rings). The settings on record: isolated rat aorta constricted with methoxamine (3 μM); 50% relaxation.
Description: Male Sprague-Dawly rats (350-450 g, obtained from the Experimental Animal Team of the Korea Research Institute of Chemical Technology) were knocked unconscious by hitting the occipital region, sacrificed by cervical dislocation, and underwent thoracotomy. After being quickly removed, the thoracic aorta was deprived of the adipose tissue and cut into aortic rings of 3 mm width. The aorta was lightly rubbed with cotton club soaked in a modified Krebs Henseleit buffer (Physiological Salt Solution, PSS) to remove the inner epithelial layer therefrom.
Thereafter, 3×10^−6 M methoxamine was applied to induce an intensive constriction in the vascular smooth muscle. When the vasoconstriction induced by the methoxamine was reached and maintained to a maximum, test compounds and controls were cumulatively added to the organ baths in concentrations of 1, 3, 10 and 30 μM so as to examine the vasodilation effect.
The change rate of constriction by the addition of the drugs compared to the maximal constriction induced by methoxamine was calculated to plot a concentration-relaxation response curve.
Assay [2] has as its system ischemic myocardium damage model of anesthetized rats. Briefly: Cardioprotective activity in ischemic heart models of rats (LAD occlusion/reperfusion, anesthetized rats). In kind it is in vivo, rat. The settings on record: rat, in vivo, iv, 0.3 mg/kg. As for the experimental part:
After trachetomy, the rats were rendered to respire artificially at a rate of 60/min with a stroke volume of 10 ml/kg. Cannulars were inserted into the fermoral vein and the fermoral artery and used for drug administration and blood pressure measurement, respectively.
In the ischemic myocardial injury models, the body temperature has an important influence on the results. To avoid the change in the body temperature, a body temperature measuring probe was inserted into the rectum of each rat and the body temperature was constantly kept at 37° C. with the aid of a homeothermic blanket control unit.
Afterwards, during testing, a continuous measurement was made of the mean arterial blood pressures and heart rates from the rats. For the measurement of the blood pressure, a pressure transducer, such as that manufactured by Grass Ins., MA, U.S.A., identified as Model Statham P23XL, was used.
The heart rate was measured by a tachometer, such as that manufactured by Gould Inc., Ohio, U.S.A., identified as Biotachometer. In addition, all of the changes occurring were continuously recorded through the Gould 2000 chart recorder, manufactured by Gould Inc.
The left coronary artery was occluded according to the Selye H. method as follows. The rats underwent a left thoracotomy operation for partial opening of the chest and the right-side chest was pressurized by the middle finger of the left hand to push the heart out. Immediately after the left anterior descending coronary artery hereinafter referred to as (LAD) was carefully stitched using a suture needle with 5-0 silk ligature, the heart was then repositioned in the thoracic cavity while both ends of the ligature were situated outside. The opposite ligature ends were passed through a PE tube (PE100, 2.5 cm) and allowed to stand loose for 20 min for stabilization. Via the cannula inserted into the femoral vein, vehicles or drugs were administered into the rats which were rendered to stand for 30 min in order to sufficiently elicit the efficacies of the drugs.
Next, the PE tube which had the doubled strands of the ligature passed therethrough was pushed toward the heart and then, set upright by tightly pulling end regions of the ligature with a hemostatic pincette while pressing the coronary artery.
After the reocclusion of the coronary artery in accordance with the above procedure, the rats were administered with 2 ml of a 1% Evans blue through an intravenous route. Subsequently, an excess of pentobarbital was intravenously injected to kill the rats, after which the heat was removed and then, deprived of the right ventricle and both atria. The left ventricle was cut horizontally to the heart apex into 5 or 6 slices which were weighed. From the surface of each slice, images were input with the aid of a Hi-scope into a computer installed with an image analyzing program (Image Pro Plus). From the images input into the computer, the area of the normal blood stream tissue region which appeared blue in a computer monitor and the area which appeared colorless were measured. The percentage of the colorless area to the total area of each slice was calculated and multiplied by the weight of each slice to determine the area at risk (AAR) of each slice. The AAR obtained from each slice was summed for all slices and the total AAR was divided by the total weight of the left ventricle to yield % AAR, as shown in the following mathematical formula 1:
AAR(%)=(summed AAR for all slices)/(total weight of left ventricle)×100 [Mathematical Formula 1]
During this fixation, 2,3,5-triphenyltetrazolium chloride was reduced into formazan dye by the myocardial dehydrogenase and its cofactor NADH, so that the normal regions of the tissue were colored brick-red. In contrast, the infarct zones of the tissue were deficient in the dehydrogenase and its cofactor, so that no reduction occurred on the 2,3,5-triphenyltetrazolium, allowing the color to remain unchanged.

The subject of assay [3] is cerebral cortical neurons. Briefly: Protective activity for neuronal cells against iron-induced damage (LDH release). In kind it is cell-based, rat. The settings on record: 30 μM compound, 50 uM FeSO4, 24 hours, LDH reduction rate vs control. As for the experimental part:
From the brains of 17-18 day-old rat embryos, cerebral cortical neurons were isolated and then, cultured at 37° C. for 7-9 days in a 5% CO2 incubator. The cortical cell cultures were washed twice with a minimum essential medium (MEM) to reduce the serum concentration to 0.2% and pre-treated for 30 min with 30 μM of each of test compounds. For the experiments, the test compounds were dissolved in DMSO and diluted in a medium. At this time, the final concentration of DMSO was not allowed to exceed 0.2%. For a control group, only vehicle was applied.
After the pre-treatment with test compounds or vehicle, FeSO4 was added to a final concentration of 50 uM, and the cultures were maintained for 24 hours in a CO2 incubator. During incubation, lactate dehydrogenase (LDH) was released into the medium upon neuronal death by the oxidative toxicity of iron. The extent of neuronal damage was assessed by measuring the amount of LDH released into the media. The protective effect of the compounds of interest on neurons was evaluated by calculating the LDH reduction rate of treatment group compared with that of the control group.
(LDH leaks from cells whose membrane has failed.)

The subject of the next assay is rat brain homogenate. Briefly: Inhibitory activity against iron-induced lipid peroxidation (MDA quantification). The settings on record: 100 μM compound, 400 μM FeCl2, 37° C., 30 min, MDA reduction rate vs control. In kind it is biochemical. Here is the method: The rat brain was homogenized in a Krebs buffer (15 mM HEPES, 10 mM glucose, 140 mM NaCl, 3.6 mM KCl, 1.5 mM CaCl2, 1.4 mM KH2PO4, 0.7 mM MgCl2, pH 7.4) and the supernatant separated by centrifugation at 12,000 rpm for 10 min was used for further experiments. FeCl2 was added to a final concentration of 400 μM in the brain homogenate which was then allowed to stand at 37° C. for 30 min for the facilitation of oxidation. Each of the test compounds was added at a concentration of 100 μM and vehicle was used as a control.
Iron facilitates the oxidation of the brain homogenate to produce malondialdehyde (MDA), a lipid peroxidation product. Thus, the lipid peroxidation was determined by MDA quantification. The inhibitory effect of the test compounds against the lipid peroxidation was evaluated by calculating MDA reduction rate of the test compounds compared with that of the control group.
Typically, the MDA quantification is achieved by reacting samples with 2-thiobarbituric acid (TBA) and measuring the absorbance at 530 nm. However, this method is unsuitable to treat samples on a large scale because of a boiling step. Thus, in this experiment, N-methyl-2-phenylindole was used instead of TBA. […] Bioxytech^R LPO-586 Kit was used for MDA quantification.

The IC50 is the concentration that inhibits the measured activity by half. A high value points to a need for much substance. On to `CCOC(=O)[C@H]1Cc2cc(OC)ccc2N1[C@@H]1c2cc([N+](=O)[O-])ccc2O[C@@](C)(C(OC)OC)[C@H]1O` [Example 36, 1-[(2R, 3S, 4R)-3,4-dihydro-2-dimethoxymethyl-3-hydroxy-2-methyl-6-nitro-2H-1-benzopyran-4-yl]-(2R)-2,3-dihydro-1H-5-methoxyindole-2-carboxylic acid ethyl ester], for which, in the assay on isolated rat hearts, the “LDH (U/g)” value is on record as 18.9 U/g, the “EDP (MmHg)” value stood at 23.3 MmHg, the “LDVP × HR (%)” value stood at 53.1% and the “TTC” value is given as 24.7 min. In assay [1], this compound returned an IC50 greater than 30 µM. In assay [2], the “AAR/LV (%)” value turned out to be 37.5% and the “IZ/AAR (%)” value turned out to be 41.4%.
Consider `CCOC(=O)[C@H]1Cc2cc(OC)ccc2N1[C@H]1c2cc([N+](=O)[O-])ccc2O[C@](C)(C(OC)OC)[C@@H]1O` [Example 11, 1-[(2S, 3R, 4S)-3,4-dihydro-2-dimethoxymethyl-3-hydroxy-2-methyl-6-nitro-2H-1-benzopyran-4-yl]-(2R)-2,3-dihydro-1H-5-methoxyindole-2-carboxylic acid ethyl ester], for which, in the assay with isolated rat hearts, the “LDH (U/g)” value is recorded as 13.3 U/g, the “EDP (MmHg)” value worked out at 14.7 MmHg, the “LDVP × HR (%)” value is recorded as 66.5% and the “TTC” value came to 22.9 min. Moreover, in assay [1], the half-inhibitory concentration (IC50) came to 16.5 µM. In assay [2], the “AAR/LV (%)” value is given as 38.3% and the “IZ/AAR (%)” value is recorded as 42.1%.
What is called % Inhibition is the share of the control response that was lost under treatment. A higher % Inhibition goes with a strong effect. In the case of `CCOC(=O)[C@H]1Cc2ccccc2N1[C@@H]1c2cc(N)ccc2O[C@](C)(C(OC)OC)[C@H]1O` [Example 44, 1-[(2S, 3S, 4R)-6-amino-3,4-dihydro-2-dimethoxymethyl-3-hydroxy-2-methyl-2H-1-benzopyran-4-yl]-(2R)-2,3-dihydro-1H-indole-2-carboxylic acid ethyl ester], in assay [3], the “% Protection” value is reported as 89%. The “% Inhibition” value with rat brain homogenate (listed as EX. 44) turned out to be 90%.
With `CCOC(=O)[C@@H]1Cc2ccccc2N1[C@@H]1c2cc(N)ccc2O[C@](C)(C(OC)OC)[C@H]1O` [Example 45, 1-[(2S, 3S, 4R)-6-amino-3,4-dihydro-2-dimethoxymethyl-3-hydroxy-2-methyl-2H-1-benzopyran-4-yl]-(2S)-2,3-dihydro-1H-indole-2-carboxylic acid ethyl ester], in assay [3] (listed as EX. 45), the “% Protection” value was found to be 96%. The “% Inhibition” value in the assay on rat brain homogenate is recorded as 81%.
Turning to `CCOC(=O)[C@H]1Cc2ccccc2N1[C@H]1c2cc(N)ccc2O[C@](C)(C(OC)OC)[C@@H]1O` [Example 42, 1-[(2S, 3R, 4S)-6-amino-3,4-dihydro-2-dimethoxymethyl-3-hydroxy-2-methyl-2H-1-benzopyran-4-yl]-(2R)-2,3-dihydro-1H-indole-2-carboxylic acid ethyl ester], the “% Protection” value in assay [3] amounted to 100%. Besides, in the assay on rat brain homogenate (listed as EX. 42), the “% Inhibition” value was determined as 90%.
For `CCOC(=O)[C@@H]1Cc2ccccc2N1[C@H]1c2cc(N)ccc2O[C@](C)(C(OC)OC)[C@@H]1O` [Example 43, 1-[(2S, 3R, 4S)-6-amino-3,4-dihydro-2-dimethoxymethyl-3-hydroxy-2-methyl-2H-1-benzopyran-4-yl]-(2S)-2,3-dihydro-1H-indole-2carboxylic acid ethyl ester], the “% Protection” value worked out at 100% in assay [3] and 101% in assay [3] (listed as EX. 43). Also, the “% Inhibition” value with rat brain homogenate (listed as EX. 43) is given as 93%.
For `CCOC(=O)[C@@H]1Cc2cc(Cl)ccc2N1[C@H]1c2cc([N+](=O)[O-])ccc2O[C@](C)(C(OC)OC)[C@@H]1O` [Example 20, 1-[(2S, 3R, 4S)-3,4-dihydro-2-dimethoxymethyl-3-hydroxy-2-methyl-6-nitro-2H-1-benzopyran-4-yl]-(2S)-2,3-dihydro-1H-5-chloroindole-2-carboxylic acid ethyl ester], the “% Protection” value in assay [3] was determined as 69%. The same compound yielded an IC50 in assay [1] greater than 30 µM. For the same compound, in assay [2], the “AAR/LV (%)” value was 35.4% and the “IZ/AAR (%)” value came to 35.1%.
For `CCOC(=O)[C@@H]1Cc2cc(OC)ccc2N1[C@@H]1c2cc([N+](=O)[O-])ccc2O[C@@](C)(C(OC)OC)[C@H]1O` [Example 35, 1-[(2R, 3S, 4R)-3,4-dihydro-2-dimethoxymethyl-3-hydroxy-2-methyl-6-nitro-2H-1-benzopyran-4-yl]-(2S)-2,3-dihydro-1H-5-methoxyindole-2-carboxylic acid ethyl ester], in the assay on isolated rat hearts, the “LDH (U/g)” value is on record as 23.2 U/g, the “EDP (MmHg)” value stood at 19 MmHg, the “LDVP × HR (%)” value came to 57.3% and the “TTC” value turned out to be 25.1 min. Besides, the IC50 in assay [1] was greater than 30 µM. In addition, in assay [2], the “AAR/LV (%)” value is 31.6% and the “IZ/AAR (%)” value was determined as 37.8%.
